The molecules below were run against S1P1 (Homo sapiens, UniProt P21453) (assay: Tango β-arrestin Recruitment Assay in U2OS cells (Assay 2b)). Settings: Tango β-arrestin Recruitment Assay, footnote 1: Relative EC50 was measured, read-out: Assay 2b relative EC50.
Sequence of S1P1 (P21453 whole entry): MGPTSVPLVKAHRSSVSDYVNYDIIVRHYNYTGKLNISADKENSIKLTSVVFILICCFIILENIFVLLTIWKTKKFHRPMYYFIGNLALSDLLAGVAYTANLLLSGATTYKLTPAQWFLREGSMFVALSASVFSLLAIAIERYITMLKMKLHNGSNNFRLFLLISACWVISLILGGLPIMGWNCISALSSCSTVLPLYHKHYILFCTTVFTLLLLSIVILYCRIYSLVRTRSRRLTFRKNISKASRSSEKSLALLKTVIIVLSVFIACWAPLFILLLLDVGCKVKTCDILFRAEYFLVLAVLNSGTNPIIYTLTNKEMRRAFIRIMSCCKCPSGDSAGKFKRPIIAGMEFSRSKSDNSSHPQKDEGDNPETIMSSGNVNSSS
Sequence of S1P1 (P32121 whole entry partner): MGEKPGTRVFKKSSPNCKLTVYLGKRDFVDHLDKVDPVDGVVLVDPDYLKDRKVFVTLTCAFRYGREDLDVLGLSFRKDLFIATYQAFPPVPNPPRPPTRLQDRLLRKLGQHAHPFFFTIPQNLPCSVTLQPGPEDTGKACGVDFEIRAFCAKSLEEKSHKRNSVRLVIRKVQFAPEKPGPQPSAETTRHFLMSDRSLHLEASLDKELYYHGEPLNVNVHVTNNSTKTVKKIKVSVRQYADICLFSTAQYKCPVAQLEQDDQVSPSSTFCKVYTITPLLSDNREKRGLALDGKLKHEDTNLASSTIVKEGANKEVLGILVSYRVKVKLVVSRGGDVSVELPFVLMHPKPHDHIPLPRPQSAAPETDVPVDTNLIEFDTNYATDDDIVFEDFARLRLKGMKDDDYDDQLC
Type: cell-based
Design: linker with TEV protease (N1a) cleavage site (C)
Description: For the Tango™ β-arrestin recruitment assay, the cytoplasmic C-terminus of S1P1 is tethered to the tTA transcriptional activator with a linker that contains a cleavage site for the N1a protease from tobacco etch virus (TEV protease). The C-terminus of the human β-arrestin2 protein is fused to TEV protease. Binding of an agonist recruits the β-arrestin-TEV fusion protein to the receptor resulting in cleavage of the linker and release of tTA to enter the nucleus and subsequently activate a tTA-dependent luciferase reporter gene.
Alternatively, U2OS cells expressing the reporter gene and S1P1 (Invitrogen) were added to the wells of a 384-well white opaque bottom assay plate (PerkinElmer) at […] per well. The cells were serum starved for 48 h in Freestyle medium (Invitrogen). Test compounds were tested at maximum concentrations of 1 μM for the agonist assay. Compounds were diluted in DMSO (10 concentration points, 3-fold each) and added to the assay plate at a 1% final DMSO concentration. The efficacy control was 1 μM S1P (Avanti). For each compound, there were duplicate assay plates and each assay plate had duplicate wells per concentration point. The plate was incubated overnight at 37° C. The GeneBLAzer β-lactamase assay reagent (Invitrogen) was added and the plates were incubated for an additional 2 h at room temperature. Fluorescence was measured using an EnVision plate reader (PerkinElmer, Waltham, Mass.) at an excitation wavelength of 409 nm and emission wavelengths of 460 nm and 530 nm. The emission intensity at each wavelength was background subtracted against wells containing medium only and the F460 nm/F530 nm ratio determined for each concentration of the test compounds. Percent activity was calculated as [(test compound ratio−DMSO ratio)/(positive control ratio−DMSO ratio)*100], where the positive control and DMSO ratios are from cells incubated with the efficacy control 1 μM S1P and 1% DMSO, respectively. The percent activities were plotted against compound concentration to determine EC50 using XLFit (IDBS).
Assay 1 is the CNG cAMP Assay as described in Biological Example 1. Assay 2a and 2b are the Tango™ β-arrestin Recruitment Assay in HEK293 and U2OS cells, respectively, as described in Biological Example 2. Assay 3a is the hS1P1R GTPγS Binding Assay as described in Biological Example 3. Assay 3b is the GTP-Eu Binding Assay as described in Biological Example 3. EC50's were measured unless otherwise noted. […] In the table, “nt” means the Compound was not tested and “no” means the compound was tested but had no measurable activity under the assay conditions employed.
For `CC(N)COc1cc(Cl)c(-c2nnc(-c3cn4cc(C(F)(F)F)cc(Cl)c4n3)s2)cc1F` (stereo not shown) [Example 298, 1-[(5-chloro-4-{5-[8-chloro-6-(trifluoromethyl)imidazo[1,2-a]pyridin-2-yl]-1,3,4-thiadiazol-2-yl}-2-fluorophenyl)pxy]propan-2-amine], the EC50 was 100 to 500 nM.

Same assay, conditions: Tango β-arrestin Recruitment Assay, read-out: Assay 2b EC50
For `CC(O)COc1cc(Cl)c(-c2nc(-c3cn4cc(C(F)(F)F)cc(Cl)c4n3)no2)cc1Cl` (stereo not shown) [Example 178, 1-[(2,5-dichloro-4-{3-[8-chloro-6-(trifluoromethyl)imidazo[1,2-a]pyridin-2-yl]-1,2,4-oxadiazol-5-yl}phenyl)oxy]propan-2-ol], the EC50 was no more than 100 nM. For `CC(O)COc1cc(Cl)c(-c2nnc(-c3cn4cc(C(F)(F)F)cc(Cl)c4n3)o2)cc1F` (stereo not shown) [Example 179, 1-[(5-chloro-4-{5-[8-chloro-6-(trifluoromethyl)imidazo[1,2-a]pyridin-2-yl]-1,3,4-oxadiazol-2-yl}-2-fluorophenyl)oxy]propan-2-ol], the EC50 was 100 to 500 nM. `CC(O)COc1cc(Cl)c(-c2nc(-c3cn4cc(C(F)(F)F)cc(Cl)c4n3)no2)cc1F` (stereo not shown) [Example 184, 1-[(5-chloro-4-{3-[8-chloro-6-(trifluoromethyl)imidazo[1,2-a]pyridin-2-yl]-1,2,4-oxadiazol-5-yl}-2-fluorophenyl)oxy]propan-2-ol] showed an EC50 of no more than 100 nM. For `CC(O)CCc1cc(Cl)c(-c2noc(-c3cn4cc(C(F)(F)F)cc(Cl)c4n3)n2)cc1Cl` (stereo not shown) [Example 185, 4-(2,5-dichloro-4-{5-[8-chloro-6-(trifluoromethyl)imidazo[1,2-a]pyridin-2-yl]-1,2,4-oxadiazol-3-yl}phenyl)butan-2-ol], the EC50 was no more than 100 nM. `N[C@@H](CO)COc1cc(Cl)c(-c2nnc(-c3cn4cc(C(F)(F)F)cc(Cl)c4n3)s2)cc1Cl` [Example 201, (2S)-2-amino-3-[(2,5-dichloro-4-{5-[8-chloro-6-(trifluoromethyl)imidazo[1,2-a]pyridin-2-yl]-1,3,4-thiadiazol-2-yl}phenyl)oxy]propan-1-ol] gave an EC50 of no more than 100 nM. `O=C(O)C1CC1c1cc(Cl)c(-c2noc(-c3cn4cc(C(F)(F)F)cc(Cl)c4n3)n2)cc1Cl` (stereo not shown) [Example 211, 2-(2,5-dichloro-4-{5-[8-chloro-6-(trifluoromethyl)imidazo[1,2-a]pyridin-2-yl]-1,2,4-oxadiazol-3-yl}phenyl)cyclopropanecarboxylic acid] was tested, and the EC50 was no more than 100 nM. `NC(CO)COc1cc(Cl)c(-c2nnc(-c3cn4cc(C(F)(F)F)cc(Cl)c4n3)s2)cc1Cl` (stereo not shown) [Example 220, 2-amino-3-[(2,5-dichloro-4-{5-[8-chloro-6-(trifluoromethyl)imidazo[1,2-a]pyridin-2-yl]-1,3,4-thiadiazol-2-yl}phenyl)oxy]propan-1-ol] gave an EC50 of no more than 100 nM. `CC(CCc1cc(Cl)c(-c2noc(-c3cn4cc(C(F)(F)F)cc(Cl)c4n3)n2)cc1Cl)OP(=O)(O)O` (stereo not shown) [Example 221, 3-(2,5-dichloro-4-{5-[8-chloro-6-(trifluoromethyl)imidazo[1,2-a]pyridin-2-yl]-1,2,4-oxadiazol-3-yl}phenyl)-1-methylpropyl dihydrogen phosphate] was tested, and the EC50 was no more than 100 nM. With `NC(CO)COc1cc(Cl)c(-c2nnc(-c3cn4cc(C(F)(F)F)cc(Cl)c4n3)o2)cc1F` (stereo not shown) [Example 222, 2-amino-3-[(5-chloro-4-{5-[8-chloro-6-(trifluoromethyl)imidazo[1,2-a]pyridin-2-yl]-1,3,4-oxadiazol-2-yl}-2-fluorophenyl)oxy]propan-1-ol] the EC50 was no more than 100 nM. `OC(COc1cc(Cl)c(-c2noc(-c3cn4cc(C(F)(F)F)cc(Br)c4n3)n2)cc1Cl)C(F)(F)F` (stereo not shown) [Example 294, 3-[(4-{5-[8-bromo-6-(trifluoromethyl)imidazo[1,2-a]pyridin-2-yl]-1,2,4-oxadiazol-3-yl}-2,5-dichlorophenyl)oxy]-1,1,1-trifluoropropan-2-ol] showed an EC50 of no more than 100 nM. `O=C(O)CCc1c(F)cc(-c2noc(-c3cn4cc(C(F)(F)F)cc(Cl)c4n3)n2)cc1Cl` [Example 296, 3-(2-chloro-4-{5-[8-chloro-6-(trifluoromethyl)imidazo[1,2-a]pyridin-2-yl]-1,2,4-oxadiazol-3-yl}-6-fluorophenyl)propanoic acid] showed an EC50 of no more than 100 nM. `Cc1cc(CCC(=O)O)c(Cl)cc1-c1nc(-c2cn3cc(I)cc(Cl)c3n2)no1` [Example 297, 3-{2-chloro-4-[3-(8-chloro-6-iodoimidazo[1,2-a]pyridin-2-yl)-1,2,4-oxadiazol-5-yl]-5-methylphenyl}propanoic acid] gave an EC50 of no more than 100 nM. `O=C(O)C1CC1c1cc(Cl)c(-c2nc(-c3cn4cc(C(F)(F)F)cc(Cl)c4n3)no2)cc1Cl` (stereo not shown) [Example 299, 2-(2,5-dichloro-4-{3-[8-chloro-6-(trifluoromethyl)imidazo[1,2-a]pyridin-2-yl]-1,2,4-oxadiazol-5-yl}phenyl)cyclopropanecarboxylic acid] showed an EC50 of 100 to 500 nM. In the case of `CC1(C)OC[C@@H](COc2cc(Cl)c(-c3noc(-c4cn5cc(C(F)(F)F)cc(Cl)c5n4)n3)cc2Cl)O1` [Example 304, 8-chloro-2-{3-[2,5-dichloro-4-({[(4R)-2,2-dimethyl-1,3-dioxolan-4-yl]methyl}oxy)phenyl]-1,2,4-oxadiazol-5-yl}-6-(trifluoromethyl)imidazo[1,2-a]pyridine], the EC50 is reported as no more than 100 nM. `CC(=O)COc1cc(Cl)c(-c2noc(-c3cn4cc(C(F)(F)F)cc(Br)c4n3)n2)cc1Cl` [Example 305, 1-[(4-{5-[8-bromo-6-(trifluoromethyl)imidazo[1,2-a]pyridin-2-yl]-1,2,4-oxadiazol-3-yl}-2,5-dichlorophenyl)oxy]propan-2-one] was tested, and the EC50 was no more than 100 nM. `O=C(O)C1CC1c1cc(Cl)c(-c2noc(-c3cn4cc(C(F)(F)F)cc(Br)c4n3)n2)cc1Cl` (stereo not shown) [Example 306, 2-(4-{5-[8-bromo-6-(trifluoromethyl)imidazo[1,2-a]pyridin-2-yl]-1,2,4-oxadiazol-3-yl}-2,5-dichlorophenyl)cyclopropanecarboxylic acid] was tested, and the EC50 was no more than 100 nM. `OCC(CO)Oc1cc(Cl)c(-c2noc(-c3cn4cc(C(F)(F)F)cc(Cl)c4n3)n2)cc1Cl` [Example 307, 2-[(2,5-dichloro-4-{5-[8-chloro-6-(trifluoromethyl)imidazo[1,2-a]pyridin-2-yl]-1,2,4-oxadiazol-3-yl}phenyl)oxy]propane-1,3-diol] showed an EC50 of no more than 100 nM. `OCCNc1cc(Cl)c(-c2noc(-c3cn4cc(C(F)(F)F)cc(Cl)c4n3)n2)cc1F` [Example 308, 2-[(5-chloro-4-{5-[8-chloro-6-(trifluoromethyl)imidazo[1,2-a]pyridin-2-yl]-1,2,4-oxadiazol-3-yl}-2-fluorophenyl)amino]ethanol] gave an EC50 of no more than 100 nM. `N[C@@H](CO)COc1cc(Cl)c(-c2nnc(-c3cn4cc(C(F)(F)F)ccc4n3)s2)cc1F` [Example 309, (2S)-2-amino-3-[(5-chloro-2-fluoro-4-{5-[6-(trifluoromethyl)imidazo[1,2-a]pyridin-2-yl]-1,3,4-thiadiazol-2-yl}phenyl)oxy]propan-1-ol] was tested, and the EC50 was no more than 100 nM. With `COc1ccc2nc(-c3nnc(-c4cc(F)c(OC[C@@H](N)CO)cc4Cl)s3)cn2c1` [Example 310, (2S)-2-amino-3-[(5-chloro-2-fluoro-4-{5-[6-(methyloxy)imidazo[1,2-a]pyridin-2-yl]-1,3,4-thiadiazol-2-yl}phenyl)oxy]propan-1-ol] the EC50 was no more than 100 nM.

Same assay, conditions: Tango β-arrestin, footnote 1: Relative EC50 was measured, read-out: Assay 2b Relative EC50
For `NC(CO)COc1cc(Cl)c(-c2nnc(-c3cn4cc(C(F)(F)F)cc(Cl)c4n3)o2)cc1Cl` (stereo not shown) [Example 202, 2-amino-3-[(2,5-dichloro-4-{5-[8-chloro-6-(trifluoromethyl)imidazo[1,2-a]pyridin-2-yl]-1,3,4-oxadiazol-2-yl}phenyl)oxy]propan-1-ol], the EC50 was 100 to 500 nM.

— US20100160369A1, “S1P1 Agonists and Methods of Making And Using” (EXELIXIS, INC., priority 2008, published 2010)
